Measurements taken from patent US12371454B2, “Cyclic peptide compound having Kras inhibitory action” (priority 2019, dated 2025).
Starred links: 1 amine or outer side, 2 acyl side, 3 side chain; linkers in the order of their positions; H or OH if unused. Positions of bridges follow the written chain, without caps; N, C: chain ends. Non-standard residues stand in square brackets, D forms with d. Residues, ends and D or L forms follow the SMILES beside them. *: point of attachment. hPhe(3-Cl-4-CF3) = N[C@@H](CCc1ccc(C(F)(F)F)c(Cl)c1)C(=O)O; NMePhe(4-CF3) = CN[C@@H](Cc1ccc(C(F)(F)F)cc1)C(=O)O; ACHC(1R,2R) = O=C([C@@H]1CCCC[C@H]1N[*:1])[*:2]; NMePhe(4-CN) = CN[C@@H](Cc1ccc(C#N)cc1)C(=O)O; 3Oxa8azabicyclo(3.2.1)octane = C1CC2COCC1N2*; NMePhe(4-Cl) = CN[C@@H](Cc1ccc(Cl)cc1)C(=O)O; NMePhe(4-Me) = CN[C@@H](Cc1ccc(C)cc1)C(=O)O; NMeGly(cPent) = CN[C@H](C(=O)O)C1CCCC1; Phe(3-I) = N[C@@H](Cc1cccc(I)c1)C(=O)O; Phe(2-F) = N[C@@H](Cc1ccccc1F)C(=O)O; NMe3Pal = CN[C@@H](Cc1cccnc1)C(=O)O; NMeCha = CN[C@@H](CC1CCCCC1)C(=O)O; NMeGly(cPr) = CN[C@H](C(=O)O)C1CC1; Ala(cPr) = N[C@@H](CC1CC1)C(=O)O; NMeI = CC[C@H](C)[C@H](NC)C(=O)O; NMeD = CN[C@@H](CC(=O)O)C(=O)O; NMeL = CN[C@@H](CC(C)C)C(=O)O; NMeV = CN[C@H](C(=O)O)C(C)C; d(β3hA) = C[C@@H](N)CC(=O)O; dPip = O=C(O)[C@H]1CCCCN1; NMeA = CN[C@@H](C)C(=O)O; NMeAib = CNC(C)(C)C(=O)O; Piperidide = C1CCN(*)CC1; Ac5c = NC1(C(=O)O)CCCC1; Aze = O=C(O)[C@@H]1CCN1; Sar = CNCC(=O)O

Target: T1, Kras and SOS1 (biotin-tagged human Kras loaded with GDP, His-tagged human SOS1) (Homo sapiens, UniProt P01116, G12D)
T1 construct: made in house; host or cells: E. coli (stated for Kras only)
T1 sequence (P01116 1-188 isoform P01116-2 G12D): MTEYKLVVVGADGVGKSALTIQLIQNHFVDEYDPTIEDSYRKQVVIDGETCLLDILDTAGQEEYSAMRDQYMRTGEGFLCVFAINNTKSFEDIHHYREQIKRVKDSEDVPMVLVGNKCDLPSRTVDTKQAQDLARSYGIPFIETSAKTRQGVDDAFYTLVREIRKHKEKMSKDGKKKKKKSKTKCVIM
Test: Protein-protein interaction inhibition between Kras and SOS1 (KrasGl2D-SOS PPI) using AlphaScreen
Assay type: binding
Conditions: AlphaScreen; biotin-tagged human Kras loaded with GDP, His-tagged human SOS1; read-out: KRAS G12D-SOS PPI IC50
Outline: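 Binding between SOS1 and Kras is detected as bead-proximity luminescence: illuminate Ni-conjugated donors (680 nm), collect 520-620 nm emission from streptavidin-conjugated acceptors; Kras carries biotin and GDP loaded after purification, SOS1 carries a His tag.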

Structure (SMILES): CC[C@H](C)[C@@H]1NC(=O)[C@H](CC(C)C)N(C)C(=O)C[C@@H](C(=O)N2C3CCC2COC3)N(C)C(=O)[C@H]([C@@H](C)CC)N(C)C(=O)C2(CCCC2)NC(=O)[C@@H]2CCCN2C(=O)[C@H](CCc2ccc(C(F)(F)F)c(Cl)c2)NC(=O)CN(C)C(=O)[C@H](Cc2ccc(C(F)(F)F)cc2)N(C)C(=O)[C@@H]2CCN2C(=O)[C@H](C)N(C)C1=O [Compound 545] ([NMeL]I[NMeA][Aze][NMePhe(4-CF3)][Sar][hPhe(3-Cl-4-CF3)]P[Ac5c][NMeI][NMeD]-{3Oxa8azabicyclo(3.2.1)octane}; lactam N-11)
- IC50: 1.1 nM

Structure (SMILES): CC[C@H](C)[C@@H]1NC(=O)[C@H](C)N(C)C(=O)C[C@@H](C)NC(=O)[C@H](C2CCCC2)N(C)C(=O)C2(CCCC2)NC(=O)[C@@H]2CCCN2C(=O)[C@H](CCc2ccc(C(F)(F)F)c(Cl)c2)NC(=O)CN(C)C(=O)[C@H](Cc2ccc(Cl)cc2)N(C)C(=O)[C@@H]2CCCN2C(=O)CN(C)C1=O [Compound 549] (cyclo([Ac5c][NMeGly(cPent)][d(β3hA)][NMeA]I[Sar]P[NMePhe(4-Cl)][Sar][hPhe(3-Cl-4-CF3)]P))
- IC50: 4 nM

Structure (SMILES): CC(C)C[C@H]1C(=O)N[C@@H](CC2CC2)C(=O)N(C)CC(=O)N(C)CC(=O)N(C)[C@@H](CC2CCCCC2)C(=O)N(C)CC(=O)N[C@@H](CCc2ccc(C(F)(F)F)c(Cl)c2)C(=O)N2CCC[C@H]2C(=O)NC2(CCCC2)C(=O)N(C)[C@@H](C(C)C)C(=O)N[C@H](C)CC(=O)N1C [Compound 550] (cyclo([Ac5c][NMeV][d(β3hA)][NMeL][Ala(cPr)][Sar][Sar][NMeCha][Sar][hPhe(3-Cl-4-CF3)]P))
- IC50: 110 nM

Structure (SMILES): CC[C@H](C)[C@@H]1NC(=O)[C@H](C)N(C)C(=O)C[C@@H](C(=O)N2CCCCC2)N(C)C(=O)[C@H](C(C)C)N(C)C(=O)C2(CCCC2)NC(=O)[C@@H]2CCCN2C(=O)[C@H](CCc2ccc(C(F)(F)F)c(Cl)c2)NC(=O)[C@H]2CCCCN2C(=O)[C@H](CC2CCCCC2)N(C)C(=O)[C@@H]2CCN2C(=O)CN(C)C1=O [Compound 553] ([NMeA]I[Sar][Aze][NMeCha][dPip][hPhe(3-Cl-4-CF3)]P[Ac5c][NMeV][NMeD]-Piperidide; lactam N-11)
- IC50: 27 nM

Structure (SMILES): CC[C@H](C)[C@@H]1NC(=O)[C@H](CC(C)C)N(C)C(=O)C[C@@H](C(=O)N2CCCCC2)N(C)C(=O)[C@H](CC(C)C)NC(=O)C(C)(C)N(C)C(=O)[C@H](Cc2ccccc2F)NC(=O)[C@H](Cc2cccc(I)c2)NC(=O)CN(C)C(=O)[C@H](Cc2ccc(C)cc2)N(C)C(=O)CN(C)C(=O)CN(C)C1=O [Compound 556] ([NMeL]I[Sar][Sar][NMePhe(4-Me)][Sar][Phe(3-I)][Phe(2-F)][NMeAib]L[NMeD]-Piperidide; lactam N-11)
- IC50: 30 nM

Structure (SMILES): CC[C@H](C)[C@@H]1NC(=O)[C@H](CC(C)C)N(C)C(=O)C[C@@H](C(=O)N(C)C)N(C)C(=O)[C@H]([C@@H](C)CC)N(C)C(=O)[C@H](C)NC(=O)[C@H](Cc2cccnc2)N(C)C(=O)[C@H](CCc2ccc(C(F)(F)F)c(Cl)c2)NC(=O)CN(C)C(=O)[C@H](Cc2ccc(C)cc2)N(C)C(=O)[C@@H]2CCN2C(=O)[C@H](C)N(C)C1=O [Compound 557] ([NMeL]I[NMeA][Aze][NMePhe(4-Me)][Sar][hPhe(3-Cl-4-CF3)][NMe3Pal]A[NMeI][NMeD]-NMe2; lactam N-11)
- IC50: 4.4 nM

Structure (SMILES): CC[C@H](C)[C@@H]1NC(=O)[C@H](CC(C)C)N(C)C(=O)C[C@@H](C)NC(=O)[C@H](C(C)C)N(C)C(=O)C2(CCCC2)NC(=O)[C@@H]2CCCN2C(=O)[C@H](CCc2ccc(C(F)(F)F)c(Cl)c2)NC(=O)CN(C)C(=O)[C@H](Cc2ccc(C#N)cc2)N(C)C(=O)CN(C)C(=O)CN(C)C1=O [Compound 564] (cyclo([Ac5c][NMeV][d(β3hA)][NMeL]I[Sar][Sar][NMePhe(4-CN)][Sar][hPhe(3-Cl-4-CF3)]P))
- IC50: 9.6 nM

Structure (SMILES): CC[C@H](C)[C@@H]1NC(=O)[C@H](C2CC2)N(C)C(=O)C[C@@H](C)NC(=O)[C@H](C(C)C)N(C)C(=O)C2(CCCC2)NC(=O)[C@@H]2CCCN2C(=O)[C@H](CCc2ccc(C(F)(F)F)c(Cl)c2)NC(=O)CN(C)C(=O)[C@H](CC2CCCCC2)N(C)C(=O)[C@@H]2CCN2C(=O)[C@H](C)N(C)C1=O [Compound 565] (cyclo([Ac5c][NMeV][d(β3hA)][NMeGly(cPr)]I[NMeA][Aze][NMeCha][Sar][hPhe(3-Cl-4-CF3)]P))
- IC50: 55 nM

Structure (SMILES): CC[C@H](C)[C@@H]1NC(=O)[C@H](CC(C)C)NC(=O)[C@@H]2CCCC[C@H]2NC(=O)[C@H](C(C)C)N(C)C(=O)C2(CCCC2)NC(=O)[C@@H]2CCCN2C(=O)[C@H](CCc2ccc(C(F)(F)F)c(Cl)c2)NC(=O)CN(C)C(=O)[C@H](CC2CCCCC2)N(C)C(=O)CN(C)C(=O)CN(C)C1=O [Compound 569] (cyclo([Ac5c][NMeV][ACHC(1R,2R)]LI[Sar][Sar][NMeCha][Sar][hPhe(3-Cl-4-CF3)]P))
- IC50: 73 nM

Structure (SMILES): CC[C@H](C)[C@@H]1NC(=O)[C@H](C2CCCC2)N(C)C(=O)C[C@@H](C)NC(=O)[C@H](C(C)C)N(C)C(=O)C2(CCCC2)NC(=O)[C@@H]2CCCN2C(=O)[C@H](CCc2ccc(C(F)(F)F)c(Cl)c2)NC(=O)CN(C)C(=O)[C@H](CC2CCCCC2)N(C)C(=O)[C@@H]2CCN2C(=O)[C@H](C)N(C)C1=O [Compound 570] (cyclo([Ac5c][NMeV][d(β3hA)][NMeGly(cPent)]I[NMeA][Aze][NMeCha][Sar][hPhe(3-Cl-4-CF3)]P))
- IC50: 27 nM
